Assay results: ChEMBL document CHEMBL3352804, “One-pot synthesis of polyunsaturated fatty acid amides with anti-proliferative properties” (Bioorg Med Chem Lett, 2014)
pIC50: −log10 of the molar value.

System: A549
Assay: Growth inhibition of human A549 cells at 3 uM after 48 hrs by trypan blue dye exclusion method
Type: functional
Conditions: A549, 48 h, read-out: GI

SMILES	inhibition of growth at 3 µM [%]
CC/C=C\C/C=C\C/C=C\C/C=C\C/C=C\C/C=C\CCC(=O)NCCNC(=O)CC/C=C\C/C=C\C/C=C\C/C=C\C/C=C\C/C=C\CC	13
CC/C=C\C/C=C\C/C=C\C/C=C\C/C=C\C/C=C\CCC(=O)NCC(O)CN (stereo unspecified)	38.3
CC/C=C\C/C=C\C/C=C\C/C=C\C/C=C\CCCC(=O)NC(C)CO (stereo unspecified)	98.4
CC/C=C\C/C=C\C/C=C\C/C=C\C/C=C\CCCCCC(=O)NC[C@H](O)CO	31.6
CC/C=C\C/C=C\C/C=C\C/C=C\C/C=C\CCCCCC(=O)OCC(O)CO (stereo unspecified)	74.5
CC/C=C\C/C=C\C/C=C\C/C=C\C/C=C\C/C=C\CCC(=O)NCCO	29.3
CC/C=C\C/C=C\C/C=C\C/C=C\C/C=C\CCCC(=O)OCC(O)CO (stereo unspecified)	51.4
CC/C=C\C/C=C\C/C=C\C/C=C\C/C=C\CCCCCC(=O)NC(CO)CO	97.4
CC/C=C\C/C=C\C/C=C\C/C=C\C/C=C\CCCC(=O)NC(CO)CO	84.2
CC/C=C\C/C=C\C/C=C\C/C=C\C/C=C\C/C=C\CCC(=O)OCC(O)CO (stereo unspecified)	59.1
CC/C=C\C/C=C\C/C=C\C/C=C\C/C=C\C/C=C\CCC(=O)NC[C@H](O)CO	42.3
CC/C=C\C/C=C\C/C=C\C/C=C\C/C=C\C/C=C\CCC(=O)NCC(O)CO (stereo unspecified)	88.7
CC/C=C\C/C=C\C/C=C\C/C=C\C/C=C\C/C=C\CCC(=O)N[C@H](C)CO	98.3
CC/C=C\C/C=C\C/C=C\C/C=C\C/C=C\CCCCCC(=O)NC[C@@H](O)CO	47.4
CC/C=C\C/C=C\C/C=C\C/C=C\C/C=C\C/C=C\CCC(=O)NC(CO)CO	77.4
CC/C=C\C/C=C\C/C=C\C/C=C\C/C=C\CCCCCC(=O)NCCO	96.9
CC/C=C\C/C=C\C/C=C\C/C=C\C/C=C\C/C=C\CCC(=O)NC[C@@H](O)CO	48.1
CC/C=C\C/C=C\C/C=C\C/C=C\C/C=C\CCCC(=O)NCCCNC	67.8
CC/C=C\C/C=C\C/C=C\C/C=C\C/C=C\C/C=C\CCC(=O)NCC(O)CNC(=O)CC/C=C\C/C=C\C/C=C\C/C=C\C/C=C\C/C=C\CC	83.8
CC/C=C\C/C=C\C/C=C\C/C=C\C/C=C\CCCC(=O)OCCCN(C)C	95
CC/C=C\C/C=C\C/C=C\C/C=C\C/C=C\CCCC(=O)NCCO	70.9
CC/C=C\C/C=C\C/C=C\C/C=C\C/C=C\CCCCCC(=O)NCC(O)CNC(=O)CCCCC/C=C\C/C=C\C/C=C\C/C=C\C/C=C\CC	97.7
CC/C=C\C/C=C\C/C=C\C/C=C\C/C=C\C/C=C\CCC(=O)NC(CO)C(=O)O (stereo unspecified)	68.7

System: A549
Assay: Growth inhibition of human A549 cells after 48 hrs by trypan blue dye exclusion method
Type: functional, cell-based
Conditions: A549, 48 h

pIC50	SMILES
5.82	CC/C=C\C/C=C\C/C=C\C/C=C\C/C=C\C/C=C\CCC(=O)OCC(O)CO (stereo unspecified)
6.60	CC/C=C\C/C=C\C/C=C\C/C=C\C/C=C\C/C=C\CCC(=O)N[C@H](C)CO
6.32	CC/C=C\C/C=C\C/C=C\C/C=C\C/C=C\C/C=C\CCC(=O)NC(CO)CO
